Laboratory results from PMC11973282, “RAS70 peptide targets multiforme glioblastoma by binding to the plasma membrane heat shock protein HSP70” (Frontiers in Oncology, 2025).

Columns and labels:
GL261 glioma = tested on: GL261 glioma; parameters: species or system C57BL/6 mice; conditions: mouse, in vivo
Experimental: The animals were anesthetized with a combination of Zoletil 100 (Virbac, France) and Rometar (Bioveta, Czech Republic). Rat glioma C6 (2х10^6) and mice glioma GL261 (1х10^6) cells were injected intracranially into the area of nucl. caudatus dexter.
For evaluation of the tumor retention of the RAS70 peptide in GL261 glioma-bearing mice the animals following tumor cells injection were randomly assigned to the study groups (6 animals each) as follows (1): control group – PBS i.v. injection via tail vein (100 μL) (2); i.v. administration of […] peptide (100 μl, 2.5 mg/kg) (3); i.v. administration of NGL-RGD-sCy7.5 peptide (100 μl, 2.5 mg/kg) (4); i.v. administration of TKD-sCy7.5 peptide (100 μl, 2.5 mg/kg) (5); i.v. administration of […] peptide (100 μl, 2.5 mg/kg). Following clinical manifestation of the brain tumor progression in animals (3–4 weeks after intracranial tumor cells injection) peptides were i.v. injected and the peptides biodistribution was assessed employing IVIS in vivo Imaging System (PerkinElmer, USA). […]
Processing of the obtained luminescence images was performed using Living Image 4.7.4 firmware. The luminescence signals were read from the color maps of the obtained images by selecting the ROI contour (region of interest). […]

[1] = RAS70 solution stability study (HPLC-QTOF/MS); assay type: physicochemical; conditions: 1 mg/mL stock in sterile 0.9% sodium chloride, diluted working solutions, Protein LoBind tubes, HPLC-QTOF/MS peak area normalized to internal standard dalargin vs freshly prepared solutions
Excerpt: HPLC grade reagents include acetonitrile (1.00029) and formic acid (5.33002), were purchased from Sigma Aldrich. The deionized HPLC grade water was obtained through a Milli-Q system (Millipore, Milford, MA, USA). Sodium acetate (Sigma Aldrich, St. Louis, USA) was used for MS calibration. Dalargin (Tyrosyl-D-alanyl-glycyl-phenylalanyl-leucyl-arginine; UNII V13505565P) was used as an internal standard. Protein LoBind® Tubes (022431081, Eppendorf, Hamburg, Germany). The stock solution of RAS70 were prepared by dissolving 1 mg of RAS70 reference standard in 1 mL of a sterile solution of 0.9% sodium chloride in water. After centrifugation the supernatant were transferred into Protein LoBind Tubes (Eppendorf, Hamburg, Germany). Working standard solutions for stability study were prepared using a dilution method. All of the solutions were stored away from light at RT and in a refrigerator at +4°C. The samples were analyzed on a HPLC-QTOF/MS system (Bruker Daltonics, Bremen, Germany) that consisted of an Elute UHPLC coupled to Q-TOF Maxis Impact equipped with an electrospray ionization source ( Supplementary Figure S1 ). […] Chromatograms and mass spectra were analyzed using DataAnalysis® 5.0 software (Bruker Daltonics GmbH, Bremen, Germany). […]

CC(C)C[C@H](NC(=O)[C@H](CC(C)C)NC(=O)[C@H](CC(N)=O)NC(=O)[C@H](CC(N)=O)NC(=O)[C@H](CC(=O)O)NC(=O)[C@H](CCCCN)NC(=O)[C@@H](N)[C@@H](C)O)C(=O)NCC(=O)N[C@@H](CCCNC(=N)N)C(=O)N[C@@H](Cc1ccccc1)C(=O)N[C@@H](CCC(=O)O)C(=O)N[C@@H](CC(C)C)C(=O)N[C@@H](CO)C(=O)NCC(=O)NCCC(=O)N[C@@H](CCCNC(=N)N)C(=O)NCC(=O)N[C@@H](CC(=O)O)C(=O)O [RAS70]
presence in normal brain tissue of animals (GL261 glioma): non-specific presence of the RAS70 in blood vessel but not in normal brain cells | rank order of organ accumulation (biodistribution) (GL261 glioma; iv): kidney > liver > small intestine > lungs | time for which RAS70 solution was stable ([1]; storage at RT away from light): 1 week | time for which RAS70 solution was stable ([1]; storage in refrigerator at +4°C away from light): 1 week
